The source made the active and inactive calls. No cut-off for these calls is given here.
Tests used:
MDA-MB-231 [1] = assay: Cytotoxicity against human MDA-MB-231 cells assessed as reduction in cell viability incubated for 6 days by SRB assay; assay type: functional, cell-based
MCF7 [2] = assay: Cytotoxicity against human MCF7 cells assessed as reduction in cell viability incubated for 6 days by SRB assay; assay type: functional, cell-based
SK-BR-3 [3] = assay: Cytotoxicity against human SK-BR-3 cells assessed as reduction in cell viability incubated for 6 days by SRB assay; assay type: functional, cell-based
MDA-MB-231 [4] = assay: Induction of cell cycle arrest in human MDA-MB-231 cells assessed as reduction in G1 phase at IC25 concentration incubated for 6 days by PI staining based flow cytometric analysis; assay type: functional; settings: time 6.0 day
SK-BR-3 [5] = assay: Induction of cell cycle arrest in human SK-BR-3 cells assessed as accumulation of cells at G2/M phase at IC25 concentration incubated for 6 days by PI staining based flow cytometric analysis; assay type: functional; settings: time 6.0 day
SK-BR-3 [6] = assay: Induction of cell cycle arrest in human SK-BR-3 cells assessed as accumulation of cells at G2/M phase at IC50 concentration incubated for 6 days by PI staining based flow cytometric analysis; assay type: functional; settings: time 6.0 day
MCF7 [7] = assay: Induction of DNA damage in human MCF7 cells assessed as increase in gamma-H2AX level at IC25 concentration incubated for 6 days by flow cytometric analysis; assay type: functional, cell-based; settings: time 6.0 day
MCF7 [8] = assay: Induction of DNA damage in human MCF7 cells assessed as increase in gamma-H2AX level at IC50 concentration incubated for 6 days by flow cytometric analysis; assay type: functional, cell-based; settings: time 6.0 day
Quadruplex DNA [9] = assay: Stabilization of G4 quadruplex DNA (unknown origin) in human MCF7 cells at IC25 concentration incubated for 6 days by flow cytometric analysis; assay type: cell-based; settings: time 6.0 day
Quadruplex DNA [10] = assay: Stabilization of G4 quadruplex DNA (unknown origin) in human SK-BR-3 cells assessed as increase in G4 motif at IC50 concentration incubated for 6 days by flow cytometric analysis; assay type: cell-based; settings: time 6.0 day
SK-BR-3 [11] = assay: Induction of DNA damage in human SK-BR-3 cells assessed as increase in gamma-H2AX level at IC25 concentration incubated for 6 days by flow cytometric analysis; assay type: functional, cell-based; settings: time 6.0 day
SK-BR-3 [12] = assay: Induction of DNA damage in human SK-BR-3 cells assessed as increase in gamma-H2AX level at IC50 concentration incubated for 6 days by flow cytometric analysis; assay type: functional, cell-based; settings: time 6.0 day
MCF7 [13] = assay: Downregulation of c-MYC protein expression in human MCF7 cells at IC25 concentration incubated for 6 days by Western blotting analysis; assay type: functional, cell-based; settings: time 6.0 day
Quadruplex DNA [14] = assay: Binding affinity to c-Myc G4 quadruplex DNA (TGAGGGTGGGTAGGGTGGGTAA) (unknown origin) assessed as equilibrium binding constant (Ka) by ITC analysis; assay type: nucleic-acid assay
Quadruplex DNA [15] = assay: Binding affinity to HER2 G4 quadruplex DNA (GGAGAAGGAGGAGGTGGAGGAGGAGGG) (unknown origin) assessed as equilibrium binding constant (Ka) by ITC analysis; assay type: nucleic-acid assay
Quadruplex DNA [16] = assay: Binding affinity to c-Myc G4 quadruplex DNA (TGAGGGTGGGTAGGGTGGGTAA) (unknown origin) assessed as Gibbs free energy by ITC analysis; assay type: nucleic-acid assay
Quadruplex DNA [17] = assay: Binding affinity to HER2 G4 quadruplex DNA (GGAGAAGGAGGAGGTGGAGGAGGAGGG) (unknown origin) assessed as Gibbs free energy by ITC analysis; assay type: nucleic-acid assay
Quadruplex DNA [18] = assay: Binding affinity to c-Myc G4 quadruplex DNA (TGAGGGTGGGTAGGGTGGGTAA) (unknown origin) assessed as binding enthalpy by ITC analysis; assay type: nucleic-acid assay
Quadruplex DNA [19] = assay: Binding affinity to HER2 G4 quadruplex DNA (GGAGAAGGAGGAGGTGGAGGAGGAGGG) (unknown origin) assessed as binding enthalpy by ITC analysis; assay type: nucleic-acid assay
Quadruplex DNA [20] = assay: Binding affinity to c-Myc G4 quadruplex DNA (TGAGGGTGGGTAGGGTGGGTAA) (unknown origin) assessed as change in entropy by ITC analysis; assay type: nucleic-acid assay
Quadruplex DNA [21] = assay: Binding affinity to HER2 G4 quadruplex DNA (GGAGAAGGAGGAGGTGGAGGAGGAGGG) (unknown origin) assessed as change in entropy by ITC analysis; assay type: nucleic-acid assay
Quadruplex DNA [22] = settings: time 10.0 min
Quadruplex DNA [23] = settings: time 10.0 min; remark: listed apart in the source
Quadruplex DNA [24] = settings: time 10.0 min; remark: listed apart in the source
Quadruplex DNA [25] = settings: time 10.0 min; remark: listed apart in the source
Quadruplex RNA [26] = settings: time 10.0 min
Quadruplex RNA [27] = settings: time 10.0 min; remark: listed apart in the source

CC[C@@]1(O)C(=O)OCc2c1cc1n(c2=O)Cc2c-1nc1ccccc1c2CCNC(C)C [BELOTECAN]
IC50 (MDA-MB-231 [1]; Homo sapiens, MDA-MB-231, 144 h): 2.4 nM | IC25 (MDA-MB-231 [1]; time 6 day): 1.4 10^-3microM | IC50 (MCF7 [2]; Homo sapiens, MCF7, 144 h): 1.2 nM | IC25 (MCF7 [2]; time 6 day): 0.5 10^-3microM | IC50 (SK-BR-3 [3]; Homo sapiens, SK-BR-3, 144 h): 2 nM | IC25 (SK-BR-3 [3]; time 6 day): 0.9 10^-3microM | Activity (MDA-MB-231 [4]): Active | Activity (SK-BR-3 [5]): Active | Activity (SK-BR-3 [6]): Active | Activity (MCF7 [7]): Active; Slightly Lower Dna Damage Observed | Activity (MCF7 [8]): Active; Slightly Lower Dna Damage Observed | Activity (Quadruplex DNA [9]): Active | Activity (Quadruplex DNA [10]): Active | Activity (SK-BR-3 [11]): Active; Slightly Lower Dna Damage Observed | Activity (SK-BR-3 [12]): Active; Slightly Lower Dna Damage Observed | Activity (MCF7 [13]): Active | Ka (Quadruplex DNA [14]): 2.3 10^5/M | Ka (Quadruplex DNA [15]): 2.3 10^5/M | deltaG (Quadruplex DNA [16]): -7.29 kcal/mol | deltaG (Quadruplex DNA [17]): -7.31 kcal/mol | deltaH (Quadruplex DNA [18]): -5.5 kcal/mol | deltaH (Quadruplex DNA [19]): -6.69 kcal/mol | TdeltaS (Quadruplex DNA [20]): 1.79 kcal/mol | TdeltaS (Quadruplex DNA [21]): 0.621 kcal/mol | deltaTm1/2 (Quadruplex DNA [22]): 15.9 °C | deltaTm1/2 (Quadruplex DNA [23]): 7.5 °C | deltaTm1/2 (Quadruplex DNA [24]): 16.2 °C | deltaTm1/2 (Quadruplex DNA [25]): 12.7 °C | deltaTm1/2 (Quadruplex RNA [26]): 14.7 °C | deltaTm1/2 (Quadruplex RNA [27]): 6.6 °C

Source: ChEMBL document CHEMBL6153050, “Repurposing FDA-approved drugs to target G-quadruplexes in breast cancer” (Eur J Med Chem, 2025)
